For assay [1], the target named is T1, L3MBTL1 3xMBT (Homo sapiens, UniProt Q9Y468).
T1 sequence (Q9Y468 197-526 isoform Q9Y468-1): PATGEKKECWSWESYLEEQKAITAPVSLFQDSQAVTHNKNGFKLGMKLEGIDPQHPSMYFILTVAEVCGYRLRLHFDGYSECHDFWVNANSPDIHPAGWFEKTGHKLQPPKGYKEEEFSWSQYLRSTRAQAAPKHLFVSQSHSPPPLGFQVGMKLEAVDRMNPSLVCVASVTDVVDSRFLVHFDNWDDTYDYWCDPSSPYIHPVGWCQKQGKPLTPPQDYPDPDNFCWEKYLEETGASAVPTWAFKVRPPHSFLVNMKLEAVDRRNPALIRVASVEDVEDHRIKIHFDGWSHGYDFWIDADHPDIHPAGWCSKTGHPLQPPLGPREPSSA
In kind it is binding. Conditions: site H4K20me1.

Assay [2] concerns the target 53BP1 Tudor domain (Homo sapiens, UniProt Q12888). In words: Fluorescence polarization binding of 53BP1 Tudor domain to histone H4 peptides. Particulars: FP; result in words; methyl-lysine analogue peptide, site H4K20me2.

From PMC3265130 (ACS Chemical Biology, 2011) come the findings set out here.

Residues, ends and D or L forms follow the SMILES beside them. *: point of attachment. 5FAM = O=C1OC2(c3ccc(O)cc3Oc3cc(O)ccc32)c2ccc(C(=O)*)cc21; Ahx = NCCCCCC(=O)O; X1 = CNCC*

Chain of 53BP1 Tudor domain (Q12888 1484-1603): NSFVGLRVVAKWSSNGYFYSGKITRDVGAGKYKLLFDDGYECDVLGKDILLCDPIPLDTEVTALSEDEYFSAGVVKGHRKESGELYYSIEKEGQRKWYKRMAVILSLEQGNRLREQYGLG

Turning to `CC[C@H](C)[C@H](NC(=O)[C@H](CC(N)=O)NC(=O)[C@H](CC(=O)O)NC(=O)[C@H](CCCNC(=N)N)NC(=O)[C@H](CC(C)C)NC(=O)[C@@H](NC(=O)[C@H](CSCCNC)NC(=O)[C@H](CCCNC(=N)N)NC(=O)[C@H](Cc1c[nH]cn1)NC(=O)[C@H](CCCNC(=N)N)NC(=O)[C@H](CCCCN)NC(=O)[C@H](C)NC(=O)CNC(=O)CNC(=O)[C@H](CCCCN)NC(=O)CCCCCNC(=O)c1ccc2c(c1)C(=O)OC21c2ccc(O)cc2Oc2cc(O)ccc21)C(C)C)C(=O)N[C@@H](CCC(N)=O)C(N)=O` [Fl-H4(12–27)KC20me1] ({5FAM-Ahx}-KGGAKRHRC(X1)VLRDNIQ-NH2), the “ΔG(KCme)” value in assay [1] (FP, 25 °C, binding free energy, methyl-lysine analogue peptide) was “–24.6 ± 0.2 kJ/mol”. Further, the “ΔΔG(exp)” value in assay [1] (ΔG(KCme) – ΔG(Kme) from FP Kd) is 1.22 ± 0.072 kcal/mol.
As for “fluoresceine-KGGAKRHRKC(me1)VLRDNIQ [Fl-H4(12–27)KC20me2]”, the “binding to the methyl-lysine analogue containing target” value in assay [2] is “no binding”.
